Results published in publication PMC8162404, “Proteomimetic surface fragments distinguish targets by function” (Chemical Science, 2020).

Legend:
CaM [1] = target: T1, CaM (Bos taurus, UniProt P62157); test: Pull-down assay with immobilized protein and LSM libraries; type: binding, bovine; conditions: H14 library; 1:2 stoichiometry assumed; read-out: Surface mapping KD (apparent)
T1 construct: made in house; host or cells: E. coli BL21 (DE3)
How it was run: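 His-tagged protein immobilized on Co-NTA resin, equilibrated 30 min at room temperature with LSM sublibraries (64 members, […]), equimolar protein to total probe. CaM buffer: 20 mM HEPES pH 7.4, 150 mM NaCl, 5 mM CaCl2. Bound fractions from HPLC-MS loss of unbound probe versus protein-free resin control; Kd derived.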

S100B [2] = target: T2, S100B (Homo sapiens, UniProt P04271); test: as above; type: binding; conditions: H14 library; 1:1 binding assumed; read-out: Surface mapping KD (apparent)
T2 construct: made in house; host or cells: Escherichia coli BL21(DE3)
T2 sequence (P04271 1-92): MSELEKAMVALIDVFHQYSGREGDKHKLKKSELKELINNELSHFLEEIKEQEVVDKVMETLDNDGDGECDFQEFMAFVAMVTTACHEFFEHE
How it was run: (§1)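 Buffers were HEPES pH 7.4 with 150 mM NaCl, plus 1 mM TCEP and 1 mM CaCl2 (50 mM HEPES) for S100A4 and S100B, 1 mM TCEP for Gal-1, and no additive for RecQ-WH. Immobilized protein at 64 µM was equilibrated 30 min with the LSM sublibrary, and unbound probes were measured by LC-MS.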

Gal-1 [3] = target: T3, Gal-1 (Homo sapiens, UniProt P09382); test: as above; type: binding; conditions: H14 library; 1:1 binding assumed; read-out: Surface mapping KD (apparent)
T3 construct: made in house; host or cells: E. coli BL21(DE3)
How it was run: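 His-tagged protein immobilized on Co-NTA resin (64 µM) in 20 mM HEPES pH 7.4, 150 mM NaCl, equilibrated 30 min at room temperature with foldamer LSM sublibraries at equimolar total concentration. Unbound fractions quantified by HPLC-MS versus protein-free resin control; apparent KD assumes 1:1 binding.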

S100A4 = target: T4, S100A4 (Homo sapiens, UniProt P26447); test: as above; type: binding; conditions: H14 library; 1:1 binding assumed; read-out: Surface mapping KD (apparent)
T4 construct: made in house; host or cells: Escherichia coli BL21(DE3)
How it was run: as §1

S100B [4] = target: T2, S100B; test: Competition pull-down with native ligand RSK1 (689–735); type: binding; conditions: H14 library; competitor peptide 200 µM; read-out: Surface mapping KD (apparent), competition
CaM [5] = target: T1, CaM; test: Competition pull-down with native ligand TRPV1-Ct15; type: binding, bovine; conditions: H14 library; competitor peptide 200 µM; read-out: Surface mapping KD (apparent), competition
Gal-1 [6] = target: T3, Gal-1; test: Competition pull-down with lactose; type: binding; conditions: H14 library; lactose 10 mM; read-out: Surface mapping KD (apparent), competition
How it was run: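 His6-tagged proteins immobilized on Co-NTA resin at 64 µM final with 64-member LSM foldamer sublibraries (1 M each, as printed) in pH 7.4 HEPES/NaCl buffers (Ca2+/TCEP per target), 30 min RT; competitor peptides 200 µM final, lactose 10 mM for Gal-1. Bound fractions from LC-MS loss vs protein-free resin; KD assuming 1:1 binding.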

T3 sequence (P09382 whole entry): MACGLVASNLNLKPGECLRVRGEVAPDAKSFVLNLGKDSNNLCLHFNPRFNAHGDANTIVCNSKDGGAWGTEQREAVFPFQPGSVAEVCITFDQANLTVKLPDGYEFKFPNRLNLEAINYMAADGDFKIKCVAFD
T4 sequence (P26447 whole entry): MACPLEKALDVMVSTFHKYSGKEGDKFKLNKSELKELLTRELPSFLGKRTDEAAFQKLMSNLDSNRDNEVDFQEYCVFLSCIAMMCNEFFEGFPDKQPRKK

| Kd (CaM [1]) [µM] | Kd (S100B [2]) [µM] | Kd (Gal-1 [3]) [µM] | Kd (S100A4) [µM] | Kd (S100B [4]) [µM] | SMILES | Kd (CaM [5]) [µM] | Kd (Gal-1 [6]) [µM] |
| --- | --- | --- | --- | --- | --- | --- | --- |
| 13 | 108 | 248 | 7 | 238 | CC[C@H](C)[C@@H](CC(=O)N[C@H]1CCCC[C@@H]1C(N)=O)NC(=O)[C@H]1CCCC[C@@H]1NC(=O)[C@H]1CCCC[C@@H]1NC(=O)C[C@H](C)NC(=O)[C@H]1CCCC[C@@H]1N [H14 AI] |  |  |
| 119 | 192 | 353 | 221 | 304 | C[C@@H](CC(=O)N[C@H]1CCCC[C@@H]1C(=O)N[C@H]1CCCC[C@@H]1C(=O)N[C@H](CC(=O)N[C@H]1CCCC[C@@H]1C(N)=O)Cc1ccc(O)cc1)NC(=O)[C@H]1CCCC[C@@H]1N [H14 AY] |  |  |
|  |  |  |  | 141 | CSCC[C@@H](CC(=O)N[C@H]1CCCC[C@@H]1C(N)=O)NC(=O)[C@H]1CCCC[C@@H]1NC(=O)[C@H]1CCCC[C@@H]1NC(=O)C[C@H](CCC(=O)O)NC(=O)[C@H]1CCCC[C@@H]1N [H14 EM] |  |  |
| 49 | 433 |  | 377 | 494 | NC(=O)CC[C@@H](CC(=O)N[C@H]1CCCC[C@@H]1C(N)=O)NC(=O)[C@H]1CCCC[C@@H]1NC(=O)[C@H]1CCCC[C@@H]1NC(=O)C[C@H](Cc1ccccc1)NC(=O)[C@H]1CCCC[C@@H]1N [H14 FQ] |  |  |
| 16 | 108 | 247 | 7 | 296 | CC[C@H](C)[C@@H](CC(=O)N[C@H]1CCCC[C@@H]1C(=O)N[C@H]1CCCC[C@@H]1C(=O)N[C@@H](C)CC(=O)N[C@H]1CCCC[C@@H]1C(N)=O)NC(=O)[C@H]1CCCC[C@@H]1N [H14 IA] |  |  |
| 31 | 84 |  | 307 | 216 | CC[C@H](C)[C@@H](CC(=O)N[C@H]1CCCC[C@@H]1C(=O)N[C@H]1CCCC[C@@H]1C(=O)N[C@@H](CCCCN)CC(=O)N[C@H]1CCCC[C@@H]1C(N)=O)NC(=O)[C@H]1CCCC[C@@H]1N [H14 IK] |  |  |
| 281 |  |  | 321 | 325 | CC[C@H](C)[C@@H](CC(=O)N[C@H]1CCCC[C@@H]1C(=O)N[C@H]1CCCC[C@@H]1C(=O)N[C@@H](CC(N)=O)CC(=O)N[C@H]1CCCC[C@@H]1C(N)=O)NC(=O)[C@H]1CCCC[C@@H]1N [H14 IN] |  |  |
| 321 | 497 |  | 319 | 387 | CC[C@H](C)[C@@H](CC(=O)N[C@H]1CCCC[C@@H]1C(=O)N[C@H]1CCCC[C@@H]1C(=O)N[C@@H](CCC(N)=O)CC(=O)N[C@H]1CCCC[C@@H]1C(N)=O)NC(=O)[C@H]1CCCC[C@@H]1N [H14 IQ] |  |  |
| 20 | 37 |  | 103 | 174 | CC[C@H](C)[C@@H](CC(=O)N[C@H]1CCCC[C@@H]1C(=O)N[C@H]1CCCC[C@@H]1C(=O)N[C@@H](CCCNC(=N)N)CC(=O)N[C@H]1CCCC[C@@H]1C(N)=O)NC(=O)[C@H]1CCCC[C@@H]1N [H14 IR] |  |  |
| 142 | 382 | 266 | 79 | 456 | CC[C@H](C)[C@@H](CC(=O)N[C@H]1CCCC[C@@H]1C(=O)N[C@H]1CCCC[C@@H]1C(=O)N[C@@H](CO)CC(=O)N[C@H]1CCCC[C@@H]1C(N)=O)NC(=O)[C@H]1CCCC[C@@H]1N [H14 IS] |  |  |
| 27 | 82 |  | 312 | 316 | CC(C)C[C@@H](CC(=O)N[C@H]1CCCC[C@@H]1C(=O)N[C@H]1CCCC[C@@H]1C(=O)N[C@@H](CCCCN)CC(=O)N[C@H]1CCCC[C@@H]1C(N)=O)NC(=O)[C@H]1CCCC[C@@H]1N [H14 LK] |  |  |
| 294 | 409 | 314 | 433 | 254 | CC(C)C[C@@H](CC(=O)N[C@H]1CCCC[C@@H]1C(=O)N[C@H]1CCCC[C@@H]1C(=O)N[C@@H](CC(N)=O)CC(=O)N[C@H]1CCCC[C@@H]1C(N)=O)NC(=O)[C@H]1CCCC[C@@H]1N [H14 LN] |  |  |
|  |  | 313 |  | 369 | CC(C)[C@@H](CC(=O)N[C@H]1CCCC[C@@H]1C(=O)N[C@H]1CCCC[C@@H]1C(=O)N[C@@H](CCC(=O)O)CC(=O)N[C@H]1CCCC[C@@H]1C(N)=O)NC(=O)[C@H]1CCCC[C@@H]1N [H14 VE] |  |  |
| 67 | 138 | 296 |  | 390 | CC(C)[C@@H](CC(=O)N[C@H]1CCCC[C@@H]1C(=O)N[C@H]1CCCC[C@@H]1C(=O)N[C@@H](CCCCN)CC(=O)N[C@H]1CCCC[C@@H]1C(N)=O)NC(=O)[C@H]1CCCC[C@@H]1N [H14 VK] |  |  |
| 26 | 93 |  | 5 | 229 | CSCC[C@@H](CC(=O)N[C@H]1CCCC[C@@H]1C(N)=O)NC(=O)[C@H]1CCCC[C@@H]1NC(=O)[C@H]1CCCC[C@@H]1NC(=O)C[C@@H](NC(=O)[C@H]1CCCC[C@@H]1N)C(C)C [H14 VM] |  |  |
|  |  | 302 |  | 271 | CC(C)[C@@H](CC(=O)N[C@H]1CCCC[C@@H]1C(=O)N[C@H]1CCCC[C@@H]1C(=O)N[C@@H](CC(N)=O)CC(=O)N[C@H]1CCCC[C@@H]1C(N)=O)NC(=O)[C@H]1CCCC[C@@H]1N [H14 VN] |  |  |
|  |  | 161 |  | 339 | CC(C)[C@@H](CC(=O)N[C@H]1CCCC[C@@H]1C(=O)N[C@H]1CCCC[C@@H]1C(=O)N[C@@H](CCC(N)=O)CC(=O)N[C@H]1CCCC[C@@H]1C(N)=O)NC(=O)[C@H]1CCCC[C@@H]1N [H14 VQ] |  |  |
| 264 |  | 190 | 263 | 460 | CC(C)[C@@H](CC(=O)N[C@H]1CCCC[C@@H]1C(=O)N[C@H]1CCCC[C@@H]1C(=O)N[C@@H](CO)CC(=O)N[C@H]1CCCC[C@@H]1C(N)=O)NC(=O)[C@H]1CCCC[C@@H]1N [H14 VS] |  |  |
| 67 |  | 336 | 346 | 399 | NC(=O)[C@H]1CCCC[C@@H]1NC(=O)C[C@H](CO)NC(=O)[C@H]1CCCC[C@@H]1NC(=O)[C@H]1CCCC[C@@H]1NC(=O)C[C@H](Cc1ccc(O)cc1)NC(=O)[C@H]1CCCC[C@@H]1N [H14 YS] |  |  |

| SMILES | Kd (CaM [1]) [µM] | Kd (S100B [2]) [µM] | Kd (Gal-1 [3]) [µM] | Kd (S100A4) [µM] | Kd (S100B [4]) [µM] | Kd (CaM [5]) [µM] | Kd (Gal-1 [6]) [µM] |
| --- | --- | --- | --- | --- | --- | --- | --- |
| CC[C@H](C)[C@@H](CC(=O)N[C@H]1CCCC[C@@H]1C(N)=O)NC(=O)[C@H]1CCCC[C@@H]1NC(=O)[C@H]1CCCC[C@@H]1NC(=O)C[C@H](CO)NC(=O)[C@H]1CCCC[C@@H]1N [H14 SI] | 75 | 380 | 336 | 19 |  | 471 | 478 |
| CC(C)C[C@@H](CC(=O)N[C@H]1CCCC[C@@H]1C(N)=O)NC(=O)[C@H]1CCCC[C@@H]1NC(=O)[C@H]1CCCC[C@@H]1NC(=O)C[C@H](CO)NC(=O)[C@H]1CCCC[C@@H]1N [H14 SL] | 64 | 380 | 251 | 19 |  | 436 | 325 |
| N=C(N)NCCC[C@@H](CC(=O)N[C@H]1CCCC[C@@H]1C(N)=O)NC(=O)[C@H]1CCCC[C@@H]1NC(=O)[C@H]1CCCC[C@@H]1NC(=O)C[C@H](CO)NC(=O)[C@H]1CCCC[C@@H]1N [H14 SR] | 75 | 76 | 156 | 188 |  | 174 | 349 |
| C[C@@H](O)[C@@H](CC(=O)N[C@H]1CCCC[C@@H]1C(=O)N[C@H]1CCCC[C@@H]1C(=O)N[C@@H](CCCNC(=N)N)CC(=O)N[C@H]1CCCC[C@@H]1C(N)=O)NC(=O)[C@H]1CCCC[C@@H]1N [H14 TR] | 75 | 94 | 372 | 407 |  | 338 | 432 |
